Data taken from the OligoGym collection.
Bases are written 5' to 3'; sugars and linkages follow in the same order, as letters with counts (s phosphorothioate, o phosphodiester; PS: all linkages phosphorothioate). The collection does not say whether C is 5-methylated. l = locked nucleic acid (LNA); d = 2'-deoxy (DNA)

The sequences below were run against Tau (assay: rat primary cortical neurons, FLIPR, 25 uM ASO).

Sequence	calcium oscillation score
AACCAATTAACCGAACTGCG (sugars l3 d14 l3, PS)	18.1 % of control
TTAACCAGCTAGTGGTGCCA (sugars l3 d14 l3, PS)	0 % of control
TCCTAATTCCCAAATTCCT (sugars l2 d15 l2, PS)	57.4 % of control
CATGATCTTAGGCTGG (sugars l3 d10 l3, PS)	7.83 % of control
GTTAACTCATCAACACC (sugars l4 d10 l3, PS)	86.6 % of control
TGGTTAGCCCTAAAGTCCCA (sugars l3 d14 l3, PS)	74.5 % of control
GAAATCCCTCTACTCCA (sugars l3 d12 l2, PS)	73.7 % of control
GCCTTACTTTCTACTCA (sugars l2 d13 l2, PS)	70.7 % of control
CTTTATTTCCAAATTCACTT (sugars l5 d10 l5, PS)	≥ 200 % of control
CTTTTTTTTTCCACACTCTC (sugars l2 d14 l4, PS)	49 % of control
CATCTTAATTCATTTAATTC (sugars l4 d12 l4, PS)	84.1 % of control
AATATTACACCATCCA (sugars l4 d8 l4, PS)	101 % of control
CCTAATAAAAACAATACTA (sugars l4 d11 l4, PS)	62.3 % of control
CTTTATTTCCAAATTCAC (sugars l3 d11 l4, PS)	112 % of control
TCCCAACTCTTTGAACAC (sugars l3 d13 l2, PS)	83.5 % of control
GATATTCCACACATAA (sugars l4 d8 l4, PS)	54.8 % of control
CATTTTTTATTCATAACTTT (sugars l4 d12 l4, PS)	59.4 % of control
CCCGAGCCAAAGCC (sugars l3 d8 l3, PS)	52.2 % of control
CTGGCCATCTTATGCTGACC (sugars l3 d14 l3, PS)	12.8 % of control
CCTTACTTTCTACTCAAT (sugars l2 d12 l4, PS)	62.1 % of control
CACAAACCAACTCAACATTA (sugars l4 d13 l3, PS)	82.7 % of control
AGTGACAGAAGAGACG (sugars l3 d10 l3, PS)	9.04 % of control

Sequence	calcium oscillation score
CCTGAAACACCTTTTTCC (sugars l2 d14 l2, PS)	71.1 % of control
AGATCATCCATTTTCTT (sugars l2 d11 l4, PS)	55.3 % of control
CAACTCTTAGCATCCACT (sugars l2 d14 l2, PS)	51.6 % of control
CCTAATCCTGTGCTT (sugars l3 d9 l3, PS)	58.2 % of control
CGCACCAGGAACCTTCCAGA (sugars l3 d14 l3, PS)	28.2 % of control
GCTCCAACCACACCTTT (sugars l2 d11 l4, PS)	87.2 % of control
AACCCCTTCAACATCAGC (sugars l2 d12 l4, PS)	64.9 % of control
CTTTAATTTAATCACTC (sugars l4 d9 l4, PS)	17.3 % of control
ATTCATAAATGACTATACTT (sugars l3 d14 l3, PS)	68.5 % of control
TCGCGGAAGGTCAGCTTGTG (sugars l3 d14 l3, PS)	20.3 % of control
CCATCTTAATTCATTTAATT (sugars l4 d13 l3, PS)	69.1 % of control
TATTTCCAAATTCACTTTTA (sugars l4 d10 l1 d2 l3, PS)	127 % of control
CCCAGAATTCTAACTAT (sugars l4 d11 l2, PS)	77 % of control
CTCAAAATCCTTAATTTAAC (sugars l4 d12 l4, PS)	64.4 % of control
TCATCACCAAGTCCCAA (sugars l2 d12 l3, PS)	61.7 % of control
TGCAATTTCCTTTCCAT (sugars l3 d11 l3, PS)	67.6 % of control
CCCACCCATCAATTTGGAAA (sugars l3 d14 l3, PS)	11.7 % of control
TTCCTAATTCCCAAATTCC (sugars l3 d14 l2, PS)	62.1 % of control
CCCTAAAGTCCCAGG (sugars l3 d9 l3, PS)	72.4 % of control
CCATTCAGATCTATCCA (sugars l3 d12 l2, PS)	94.3 % of control
ACCCATCAATTTGGAAAGAT (sugars l3 d14 l3, PS)	72.6 % of control
AAAATATCCTTACCATCCT (sugars l2 d13 l4, PS)	73.9 % of control

Sequence	calcium oscillation score
TCATCTTTTCTAGAAC (sugars l4 d8 l4, PS)	77.3 % of control
CTTCCATCACTTCGAACTCC (sugars l3 d14 l3, PS)	27.1 % of control
ACTTTATTTCCAAATTCACTTTTAC (sugars ldllddddddddddddddddllldl, PS)	76.7 % of control
CTCTGGTCAAGGCTTT (sugars l3 d10 l3, PS)	0 % of control
GTGGGTGATATTGTCCAGGG (sugars l3 d14 l3, PS)	0 % of control
TCCTAATCCTGTGC (sugars l3 d8 l3, PS)	65 % of control
GGGACCCAATCTTCGACTGG (sugars l3 d14 l3, PS)	0 % of control
ACCAGCTAGTGGTGCCACCT (sugars l3 d14 l3, PS)	20.2 % of control
ATTTGGAAAGATGAAATTTG (sugars l3 d14 l3, PS)	0 % of control
ACTGTTACACATTTATC (sugars l4 d9 l4, PS)	79.8 % of control
CTTTGAACACCCCATCTA (sugars l2 d14 l2, PS)	45.6 % of control
GTTAACTCATCAACAC (sugars l4 d9 l3, PS)	59 % of control
AACCACTCTTATTCTTTAAA (sugars l4 d12 l4, PS)	91.3 % of control
GCCTAATGAGCCACACTTGG (sugars l3 d14 l3, PS)	16.6 % of control
TATTAATTATCTGCACC (sugars l3 d10 l4, PS)	50.9 % of control
ACATCTAAACACCTCAATCC (sugars l2 d15 l3, PS)	73.2 % of control
CATGATCTTAGGCT (sugars l3 d8 l3, PS)	25.3 % of control
CAGTTACCATCATACAT (sugars l3 d10 l4, PS)	89 % of control
AAGATGAAATTTGCTC (sugars l3 d10 l3, PS)	≥ 200 % of control
TCAGGTCTGGCATGG (sugars l3 d9 l3, PS)	0 % of control
CTCAGATTTTACTTCCAC (sugars l4 d12 l2, PS)	43.1 % of control
AATTCATTTAATTCTCTTCT (sugars l4 d12 l4, PS)	86.6 % of control

Sequence	calcium oscillation score
TCTGTCACTTACTACTCA (sugars l3 d13 l2, PS)	66 % of control
TTATTTCCAAATTCACTTTT (sugars l4 d11 l2 d1 l2, PS)	104 % of control
ATAGTCACTCTGGTGA (sugars l3 d10 l3, PS)	85.7 % of control
CTTACACACCACACACACTC (sugars l1 d17 l2, PS)	88.5 % of control
GCCTCATAAACCTAAT (sugars l3 d9 l4, PS)	68.2 % of control
ATCATATCCTAAGCAT (sugars l3 d9 l4, PS)	60.1 % of control
AATATCCTTACCATCCTATC (sugars l2 d14 l4, PS)	59.1 % of control
TTTTCAAACACACCTTCAT (sugars l3 d12 l4, PS)	80.8 % of control
AACCACTCTAACATCTTA (sugars l4 d11 l3, PS)	86.8 % of control
CCAATTATCTTTAAATTCTA (sugars l4 d13 l3, PS)	70.7 % of control
CCAATCAATTATATTATAT (sugars l4 d11 l4, PS)	60.8 % of control
ATTTAGTCACCATCACT (sugars l3 d10 l4, PS)	102 % of control
CCTGGTTTATGATGGA (sugars l3 d10 l3, PS)	26.1 % of control
TTCATCTACTTTTCAGCT (sugars l4 d12 l2, PS)	47.2 % of control
GTCCTAATCCTGTGC (sugars l3 d9 l3, PS)	36.5 % of control
TGATGCAGGAGTTGTA (sugars l3 d10 l3, PS)	7.62 % of control
CCGAACTGCGAGGAGCAGCT (sugars l3 d14 l3, PS)	38.9 % of control
CCCAATCTTCGACTGG (sugars l3 d10 l3, PS)	21.7 % of control
GTCTACCATGTCGATGCTGC (sugars l3 d14 l3, PS)	23.2 % of control
CGGCGCAGGCGCGAGC (sugars l3 d10 l3, PS)	2.71 % of control
GAGTGCTCTTAGCATC (sugars l3 d10 l3, PS)	33.3 % of control
TCCTTCTTCATTCTTG (sugars l3 d10 l3, PS)	23.8 % of control

Sequence	calcium oscillation score
GTTAGCCCTAAAGT (sugars l3 d8 l3, PS)	61 % of control
CTTAATTTCACCCTC (sugars l3 d9 l3, PS)	122 % of control
TCTTACAGCCAAATGCAGTC (sugars l3 d14 l3, PS)	23.9 % of control
GGCGGTGACTGCGAG (sugars l3 d9 l3, PS)	51.5 % of control
TCATCTTTTCTAGAACC (sugars l4 d10 l3, PS)	70.9 % of control
CCTTACTTTCTACTCAATT (sugars l3 d14 l2, PS)	48.1 % of control
AGCAATAGCAAACAGG (sugars l3 d10 l3, PS)	48.8 % of control
GCCTAATGAGCCACAC (sugars l3 d10 l3, PS)	70.6 % of control
CTTACTGATCATAATCC (sugars l4 d9 l4, PS)	85.1 % of control
TTTAACTCAAATCAATTCT (sugars l4 d11 l4, PS)	72.6 % of control
GAACTGCGAGGAGCAG (sugars l3 d10 l3, PS)	85.2 % of control
CATCAAATCCATGCAT (sugars l4 d8 l4, PS)	76.7 % of control
CTTCCAGTCCCGTCTT (sugars l3 d10 l3, PS)	0 % of control
ACAGCCATTTTCCATAT (sugars l3 d11 l3, PS)	59.3 % of control
TCGCTTCCAGTCCC (sugars l3 d8 l3, PS)	142 % of control
TCTCAGATTTTACTTCC (sugars l4 d11 l2, PS)	49.3 % of control
TTTTTTATTCATAACTTTTC (sugars l4 d12 l4, PS)	63.8 % of control
CTCGCGGAAGGTCAGC (sugars l3 d10 l3, PS)	0 % of control
ATTTAGTTTTCCCACCC (sugars l2 d13 l2, PS)	63.4 % of control
TTTCATCTACTTTTCAGC (sugars l4 d12 l2, PS)	39.4 % of control
TCCTTTGTAATTCCTTCT (sugars l3 d13 l2, PS)	56.4 % of control
